Source: patent publication US7608577B2, “Peptidyl ketones as inhibitors of DPIV” (OSI Pharmaceuticals, Inc., priority 2001, dated 2009)

What was measured:
Format in all cases: biochemical
[1] = molecular target: T1, Dipeptidyl peptidase I (DP I, cathepsin C) (Rattus norvegicus, UniProt P80067); assay: Cross reacting enzymes: dipeptidyl peptidase I; settings: MES buffer pH5.6, 30° C.
T1 construct: purchased Qiagen GmbH, Hilden, Germany
T1 sequence (P80067 25-462): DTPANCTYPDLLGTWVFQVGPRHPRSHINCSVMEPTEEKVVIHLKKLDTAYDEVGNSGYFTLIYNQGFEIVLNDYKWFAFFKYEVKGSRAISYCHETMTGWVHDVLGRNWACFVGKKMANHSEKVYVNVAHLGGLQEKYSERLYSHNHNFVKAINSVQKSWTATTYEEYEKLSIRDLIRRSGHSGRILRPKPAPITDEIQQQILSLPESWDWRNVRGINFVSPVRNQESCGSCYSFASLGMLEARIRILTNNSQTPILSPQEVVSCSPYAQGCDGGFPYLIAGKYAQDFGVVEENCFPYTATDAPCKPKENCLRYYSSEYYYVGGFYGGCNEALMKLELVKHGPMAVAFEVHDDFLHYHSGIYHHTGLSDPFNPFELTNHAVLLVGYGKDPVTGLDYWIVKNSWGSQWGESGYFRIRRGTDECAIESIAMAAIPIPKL
Description: DP I or cathepsin C is a lysosomal cysteine protease which cleaves off dipeptides from the N-terminus of their substrates (Gutman, H. R. & Fruton, J. S., 1948, J. Biol: Chem., 174, 851-858). It is classified as a cysteine protease. The enzyme used was purchased from Qiagen (Qiagen GmbH, Hilden, Germany). In order to get a fully active enzyme, the enzyme was diluted 1000 fold in MES buffer pH5.6 (40 mM MES, 4 mM DTT, 4 mM KCl, 2 mM EDTA, 0.015% Brij) and pre-incubated for 30 min at 30° C.
50 μl solution with the test compounds in a concentration range of 1*10^−5 M-1*10^−7 M was admixed with 110 μl buffer-enzyme-mixture. The assay mixture was pre-incubated at 30° C. for 15 min. After pre-incubation, 100 μl histidylseryl-βnitroaniline (2*10^−5M) was added and measurement of yellow color development due to β-nitroaniline release was performed at 30° C. and […] for 10 min, using a plate reader (HTS7000 plus, Applied Biosystems, Weiterstadt, Germany).
(§1) The IC 50-values were calculated using Graphit 4.0.15 (Erithacus Software, Ltd., UK).

[2] = molecular target: T2, Prolidase from porcine kidney (Sus scrofa, UniProt A0A5G2QQV1); assay: Cross reacting enzymes: prolidase; settings: substrate Ile-Pro-OH, pH 7.6
T2 sequence (A0A5G2QQV1 1-463): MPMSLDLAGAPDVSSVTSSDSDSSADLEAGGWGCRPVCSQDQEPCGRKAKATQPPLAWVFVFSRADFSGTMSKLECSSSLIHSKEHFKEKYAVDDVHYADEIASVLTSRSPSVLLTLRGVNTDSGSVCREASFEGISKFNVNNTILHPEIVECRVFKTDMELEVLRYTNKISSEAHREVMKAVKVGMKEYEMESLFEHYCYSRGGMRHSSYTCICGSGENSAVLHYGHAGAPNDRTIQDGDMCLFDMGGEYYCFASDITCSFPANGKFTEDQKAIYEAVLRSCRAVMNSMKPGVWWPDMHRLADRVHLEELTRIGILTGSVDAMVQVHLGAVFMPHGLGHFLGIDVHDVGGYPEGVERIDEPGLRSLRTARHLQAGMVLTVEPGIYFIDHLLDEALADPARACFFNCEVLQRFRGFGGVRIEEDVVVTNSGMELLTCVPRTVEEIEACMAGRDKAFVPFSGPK
Description: Prolidase from porcine kidney (ICN Biomedicals, Eschwege, Germany) was solved (1 mg/ml) in assay buffer (20 mM NH4(CH3COO)2, 3 mM MnCl2, pH 7.6). In order to get a fully active enzyme the solution was incubated for 60 min at room temperature.
450 μl solution with the test compounds in an concentration range of 5*10^−3 M-5*10^−7 M were admixed with 500 μl buffer solution (20 mM NH4(CH3COO)2, pH 7.6) and 250 μl Ile-Pro-OH (0.5 mM in the assay mixture). The assay mixture was pre-incubated at 30° C. for 5 min. After pre-incubation, 75 μl Prolidase (1:10 diluted in assay buffer) was added and measurement was performed at 30° C. and λ=220 nm for 20 min using a UV/Vis photometer, UV1 (Thermo Spectromc, Cambridge, UK).
as §1

[3] = molecular target: T3, Acylamino acid-releasing enzyme (AARE) (Homo sapiens, UniProt P13798); assay: Cross reacting enzymes: AARE; settings: substrate Acetyl-Met-AMC, pH 7.2
T3 sequence (P13798 1-732): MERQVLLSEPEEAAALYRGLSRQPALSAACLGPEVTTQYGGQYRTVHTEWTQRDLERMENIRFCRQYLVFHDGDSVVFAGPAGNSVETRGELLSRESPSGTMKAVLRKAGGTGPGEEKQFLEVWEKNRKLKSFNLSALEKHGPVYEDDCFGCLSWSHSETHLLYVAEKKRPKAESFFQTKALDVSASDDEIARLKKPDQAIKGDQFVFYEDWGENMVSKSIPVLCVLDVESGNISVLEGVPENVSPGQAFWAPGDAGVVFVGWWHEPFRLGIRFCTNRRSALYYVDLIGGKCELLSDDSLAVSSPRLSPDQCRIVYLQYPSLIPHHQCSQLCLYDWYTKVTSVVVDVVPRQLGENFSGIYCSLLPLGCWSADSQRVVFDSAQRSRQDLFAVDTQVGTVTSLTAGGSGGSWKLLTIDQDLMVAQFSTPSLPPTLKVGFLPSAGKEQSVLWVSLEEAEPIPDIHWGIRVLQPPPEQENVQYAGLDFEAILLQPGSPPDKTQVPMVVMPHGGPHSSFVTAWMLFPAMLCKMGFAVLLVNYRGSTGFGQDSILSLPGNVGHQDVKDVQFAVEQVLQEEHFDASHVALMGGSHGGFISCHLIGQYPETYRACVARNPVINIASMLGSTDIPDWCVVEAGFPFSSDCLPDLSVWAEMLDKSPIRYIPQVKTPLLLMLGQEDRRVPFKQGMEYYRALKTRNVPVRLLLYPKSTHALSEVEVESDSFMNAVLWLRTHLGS
Description: The assay mixture was pre-incubated at 30° C. for 15 min. After pre-incubation, 50 μl Acetyl-Met-AMC solution (0.54 mM) was added. Release of the AMC was measured at 30° C. using a NOVOstar fluorescence microplate reader (BMG) and excitation/emission wavelengths of 380/460 nm.
The IC50-values were calculated from the slopes of the progress curves using Graphit 4.0.15 (Erithacus Software, Ltd., UK).

Row | IC50 [1] [µM] | Prolidase IC50 [2] | AARE IC50 [3] | IC50 [2] [µM] | DP I IC50 [1] | Compound
1 | 120 | no inhibition | no inhibition | – | – | Br.CC(=O)OCC(=O)[C@@H]1CCCN1C(=O)[C@@H](NC(=O)[C@H](C)N)C(C)C [H-Ala-Val-Pro-CH2O—CO—CH3*HBr, 2-[(Acetyloxy-methyl)carbonyl]-1-N-[(L)-Alanyl-(L)-Valinyl]-(2S)-pyrrolidine hydrobromide]
2 | 316 | – | no inhibition | 414 | – | Br.CC(C)[C@H](NC(=O)[C@H](C)N)C(=O)N1CCC[C@H]1C(=O)COC(=O)c1ccccc1 [H-Ala-Val-Pro-CO—CH2O—CO—Ph*HBr, 2-[(Benzoyloxy-methyl)carbonyl]-1-N-[{(L)-Alanyl}-(L)-Valinyl]-(2S)-pyrrolidine hydrobromide]
3 | – | – | no inhibition | 413 | no inhibition | Br.CC(=O)[C@@H]1CCCN1C(=O)[C@@H](NC(=O)[C@H](C)N)C(C)C [H-Ala-Val-Pro-Me*HBr, 2-Methylcarbonyl-1-N-[(L)-Alanyl-(L)-Valinyl]-(2S)-pyrrolidine hydrobromide]
